Data on three compounds can be found in patent US12479847B2 (DANA-FARBER CANCER INSTITUTE, INC., priority 2019, dated 2025).

What all share (assay): KINOMEscan (ScanMAX) kinase profiling
Assay type in all cases: binding

Test [1] deals with T1, panel of 468 kinases (Homo sapiens, UniProt O15111).
T1 construct: purchased KINOMEscan (ScanMAX) service
T1 sequence (O15111 1-745): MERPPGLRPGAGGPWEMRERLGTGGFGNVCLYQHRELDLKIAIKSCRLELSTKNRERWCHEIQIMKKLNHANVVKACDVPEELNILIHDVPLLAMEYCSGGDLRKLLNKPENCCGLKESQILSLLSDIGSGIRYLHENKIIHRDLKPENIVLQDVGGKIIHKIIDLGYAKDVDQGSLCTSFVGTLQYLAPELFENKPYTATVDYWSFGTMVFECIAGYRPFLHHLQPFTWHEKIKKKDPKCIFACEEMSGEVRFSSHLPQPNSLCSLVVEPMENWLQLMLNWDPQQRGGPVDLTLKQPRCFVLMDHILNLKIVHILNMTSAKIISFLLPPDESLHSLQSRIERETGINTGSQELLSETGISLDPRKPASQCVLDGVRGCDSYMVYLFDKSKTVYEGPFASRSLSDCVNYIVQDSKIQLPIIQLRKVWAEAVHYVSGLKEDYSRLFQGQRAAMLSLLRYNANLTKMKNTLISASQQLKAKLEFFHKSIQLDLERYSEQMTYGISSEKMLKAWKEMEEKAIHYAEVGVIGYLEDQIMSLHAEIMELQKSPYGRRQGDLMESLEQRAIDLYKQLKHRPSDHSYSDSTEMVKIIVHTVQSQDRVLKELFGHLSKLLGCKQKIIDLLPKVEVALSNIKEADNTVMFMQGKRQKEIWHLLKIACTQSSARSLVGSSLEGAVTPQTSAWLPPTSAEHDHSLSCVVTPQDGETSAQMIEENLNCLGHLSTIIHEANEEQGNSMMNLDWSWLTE
Particulars: IKK-alpha; 1 μM; read-out: % control.

Test [2] addresses T2, panel of 468 kinases (Homo sapiens, UniProt P27448).
T2 construct: purchased KINOMEscan (ScanMAX) service
Conditions: MARK3; 1 μM; read-out: % control.

The target of test [3] is T3, panel of 468 kinases (Homo sapiens, UniProt O14976).
T3 construct: purchased KINOMEscan (ScanMAX) service
T3 sequence (O14976 1-1311): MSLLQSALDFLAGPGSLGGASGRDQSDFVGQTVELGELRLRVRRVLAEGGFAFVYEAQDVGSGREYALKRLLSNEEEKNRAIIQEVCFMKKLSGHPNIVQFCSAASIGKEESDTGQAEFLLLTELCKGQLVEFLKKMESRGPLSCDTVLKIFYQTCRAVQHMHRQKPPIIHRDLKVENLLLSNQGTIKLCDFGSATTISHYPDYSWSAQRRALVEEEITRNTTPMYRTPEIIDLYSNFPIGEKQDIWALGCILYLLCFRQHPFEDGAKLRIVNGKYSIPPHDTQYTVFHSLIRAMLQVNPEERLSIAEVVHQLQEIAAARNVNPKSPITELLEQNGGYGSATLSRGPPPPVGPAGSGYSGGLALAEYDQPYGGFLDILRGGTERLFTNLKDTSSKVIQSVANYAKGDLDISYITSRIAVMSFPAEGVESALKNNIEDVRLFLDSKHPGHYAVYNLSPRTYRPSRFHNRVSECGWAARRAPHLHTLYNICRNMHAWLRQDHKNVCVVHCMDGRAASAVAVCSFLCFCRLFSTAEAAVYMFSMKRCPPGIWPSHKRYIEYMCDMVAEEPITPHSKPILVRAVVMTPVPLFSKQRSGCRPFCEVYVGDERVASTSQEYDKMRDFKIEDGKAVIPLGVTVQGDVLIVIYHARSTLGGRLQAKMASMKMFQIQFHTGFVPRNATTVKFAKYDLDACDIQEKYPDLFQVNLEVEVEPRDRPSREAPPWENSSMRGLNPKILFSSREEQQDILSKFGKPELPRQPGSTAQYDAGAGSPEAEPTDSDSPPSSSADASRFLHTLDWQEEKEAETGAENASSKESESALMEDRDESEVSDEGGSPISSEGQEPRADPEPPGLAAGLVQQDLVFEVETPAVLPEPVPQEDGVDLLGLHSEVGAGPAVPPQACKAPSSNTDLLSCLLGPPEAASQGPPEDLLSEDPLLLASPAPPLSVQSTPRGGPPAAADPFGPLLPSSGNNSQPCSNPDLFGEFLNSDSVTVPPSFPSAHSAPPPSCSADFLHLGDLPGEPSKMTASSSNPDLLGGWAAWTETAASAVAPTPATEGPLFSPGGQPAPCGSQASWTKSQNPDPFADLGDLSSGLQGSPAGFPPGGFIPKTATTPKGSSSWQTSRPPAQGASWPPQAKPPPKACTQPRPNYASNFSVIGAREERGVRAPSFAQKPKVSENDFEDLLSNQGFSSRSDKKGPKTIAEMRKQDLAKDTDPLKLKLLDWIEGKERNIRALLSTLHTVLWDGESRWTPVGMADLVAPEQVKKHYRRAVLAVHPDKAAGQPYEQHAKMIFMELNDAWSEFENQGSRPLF
Particulars: GAK; 1 μM; read-out: % control.

The target of test [4] is T4, panel of 468 kinases (Homo sapiens, UniProt P23458).
T4 construct: purchased KINOMEscan (ScanMAX) service
Particulars: 1 μM, read-out: % control.

Test [5] addresses T5, panel of 468 kinases (Homo sapiens, UniProt P00533).
T5 construct: purchased KINOMEscan (ScanMAX) service
Particulars: EGFR; 1 μM; read-out: % control.

Molecules are shown by their SMILES. Like-named read-outs stand apart in the source and are kept apart here.

T4 sequence (P23458 whole entry): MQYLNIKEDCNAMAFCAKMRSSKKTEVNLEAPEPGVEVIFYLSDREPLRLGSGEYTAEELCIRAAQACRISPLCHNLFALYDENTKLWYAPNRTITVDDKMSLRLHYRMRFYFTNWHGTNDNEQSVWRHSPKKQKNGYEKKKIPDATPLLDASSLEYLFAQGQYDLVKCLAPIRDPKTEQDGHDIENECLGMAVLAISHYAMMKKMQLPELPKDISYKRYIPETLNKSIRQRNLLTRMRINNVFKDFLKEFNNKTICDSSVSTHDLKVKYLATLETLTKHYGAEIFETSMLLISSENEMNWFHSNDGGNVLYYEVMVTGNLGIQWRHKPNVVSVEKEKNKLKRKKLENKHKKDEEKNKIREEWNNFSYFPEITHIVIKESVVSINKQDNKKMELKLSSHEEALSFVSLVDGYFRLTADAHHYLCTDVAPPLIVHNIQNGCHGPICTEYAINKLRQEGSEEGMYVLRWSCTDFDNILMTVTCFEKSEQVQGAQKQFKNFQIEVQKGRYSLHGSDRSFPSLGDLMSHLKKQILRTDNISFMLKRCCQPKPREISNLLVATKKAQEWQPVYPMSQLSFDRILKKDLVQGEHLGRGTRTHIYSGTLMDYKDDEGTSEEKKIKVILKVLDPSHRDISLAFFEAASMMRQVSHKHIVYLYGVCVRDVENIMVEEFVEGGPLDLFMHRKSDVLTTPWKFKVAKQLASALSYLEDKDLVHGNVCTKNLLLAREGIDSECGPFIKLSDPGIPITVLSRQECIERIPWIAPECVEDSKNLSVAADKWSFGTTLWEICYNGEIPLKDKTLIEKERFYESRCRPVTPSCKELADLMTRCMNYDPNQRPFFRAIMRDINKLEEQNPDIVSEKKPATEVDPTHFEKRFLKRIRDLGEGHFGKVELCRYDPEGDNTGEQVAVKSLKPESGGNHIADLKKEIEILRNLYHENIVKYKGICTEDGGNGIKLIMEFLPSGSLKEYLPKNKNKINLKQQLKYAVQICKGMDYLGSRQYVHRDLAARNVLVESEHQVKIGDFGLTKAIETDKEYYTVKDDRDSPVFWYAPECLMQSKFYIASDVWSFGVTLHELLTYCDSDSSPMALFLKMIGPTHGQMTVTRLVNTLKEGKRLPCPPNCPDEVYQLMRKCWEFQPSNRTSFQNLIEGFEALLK
T2 sequence (P27448 whole entry): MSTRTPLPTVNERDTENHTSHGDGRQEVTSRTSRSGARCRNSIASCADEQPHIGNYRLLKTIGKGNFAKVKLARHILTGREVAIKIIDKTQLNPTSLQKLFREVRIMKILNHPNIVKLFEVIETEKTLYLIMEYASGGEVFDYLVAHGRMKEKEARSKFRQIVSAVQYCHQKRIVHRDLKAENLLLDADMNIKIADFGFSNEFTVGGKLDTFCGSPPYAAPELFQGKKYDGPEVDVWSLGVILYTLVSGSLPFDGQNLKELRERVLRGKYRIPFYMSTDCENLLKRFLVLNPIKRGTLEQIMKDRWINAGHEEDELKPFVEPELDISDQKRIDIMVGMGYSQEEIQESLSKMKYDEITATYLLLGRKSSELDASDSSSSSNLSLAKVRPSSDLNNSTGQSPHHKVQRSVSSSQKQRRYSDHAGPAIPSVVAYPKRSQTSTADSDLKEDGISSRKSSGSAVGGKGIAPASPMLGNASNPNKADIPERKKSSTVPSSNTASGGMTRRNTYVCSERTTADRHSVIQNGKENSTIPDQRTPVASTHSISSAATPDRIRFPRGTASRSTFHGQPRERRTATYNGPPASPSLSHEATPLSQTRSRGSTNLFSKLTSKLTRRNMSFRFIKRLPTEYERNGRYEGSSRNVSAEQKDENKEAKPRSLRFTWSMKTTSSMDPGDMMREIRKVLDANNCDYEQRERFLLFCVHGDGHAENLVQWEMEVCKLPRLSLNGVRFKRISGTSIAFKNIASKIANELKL
T5 sequence (P00533 25-1210): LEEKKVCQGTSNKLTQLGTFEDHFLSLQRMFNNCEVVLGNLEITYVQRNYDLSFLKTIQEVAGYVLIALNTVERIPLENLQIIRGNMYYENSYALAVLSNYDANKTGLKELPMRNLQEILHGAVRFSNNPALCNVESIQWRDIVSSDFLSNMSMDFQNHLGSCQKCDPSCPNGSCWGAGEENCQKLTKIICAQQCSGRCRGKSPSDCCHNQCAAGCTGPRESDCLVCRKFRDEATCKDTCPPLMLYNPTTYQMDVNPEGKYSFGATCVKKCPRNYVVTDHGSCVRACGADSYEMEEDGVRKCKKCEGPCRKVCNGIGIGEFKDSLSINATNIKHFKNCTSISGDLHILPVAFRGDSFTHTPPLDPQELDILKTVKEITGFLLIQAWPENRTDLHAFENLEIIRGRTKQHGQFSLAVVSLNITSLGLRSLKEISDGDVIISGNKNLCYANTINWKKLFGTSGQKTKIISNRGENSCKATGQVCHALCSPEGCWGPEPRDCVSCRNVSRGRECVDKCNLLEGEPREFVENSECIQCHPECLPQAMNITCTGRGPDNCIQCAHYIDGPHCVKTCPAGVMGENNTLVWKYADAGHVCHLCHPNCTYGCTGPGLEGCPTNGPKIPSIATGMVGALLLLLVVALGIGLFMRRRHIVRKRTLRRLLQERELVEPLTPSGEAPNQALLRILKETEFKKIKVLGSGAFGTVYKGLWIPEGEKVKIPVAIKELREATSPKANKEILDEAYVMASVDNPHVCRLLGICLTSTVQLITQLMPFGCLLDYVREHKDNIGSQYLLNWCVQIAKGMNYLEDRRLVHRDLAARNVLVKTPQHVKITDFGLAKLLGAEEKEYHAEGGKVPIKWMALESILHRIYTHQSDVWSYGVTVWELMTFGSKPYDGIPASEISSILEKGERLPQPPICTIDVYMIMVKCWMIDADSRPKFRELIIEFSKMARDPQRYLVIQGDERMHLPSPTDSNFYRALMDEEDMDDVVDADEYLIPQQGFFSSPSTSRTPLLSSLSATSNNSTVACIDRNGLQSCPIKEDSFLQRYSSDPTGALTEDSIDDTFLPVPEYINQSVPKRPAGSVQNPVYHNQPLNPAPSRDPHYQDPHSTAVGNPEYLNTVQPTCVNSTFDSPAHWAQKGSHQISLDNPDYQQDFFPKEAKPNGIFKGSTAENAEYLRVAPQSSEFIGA

On to `CNc1nc(Nc2ccc(C(=O)N3CCC(N4CCOCC4)CC3)c3c2OCO3)nc2[nH]cc(Cl)c12` [Compound 75, (7-((5-chloro-4-(methylamino)-7H-pyrrolo[2,3-d]pyrimidin-2-yl)amino)benzo[d][1,3]dioxol-4-yl)(4-morpholinopiperidin-1-yl)methanone], for which the remaining binding at 1 µM in test [1] was 65%; in test [2], 100%; in test [3], 0.55%; in test [4] (JAK1(JH1domain-catalytic)) it was 100%; in test [4] (JAK1(JH2domain-pseudokinase)), 64%; in test [5] it was 80%.
As to `CNc1nc(Nc2ccc(P3(=O)CCN(C4CCOCC4)CC3)cc2OC)nc2[nH]cc(Cl)c12` [Compound 77, 4-(4-((5-chloro-4-(methylamino)-7H-pyrrolo[2,3-d]pyrimidin-2-yl)amino)-3-methoxyphenyl)-1-(tetrahydro-2H-pyran-4-yl)-1,4-azaphosphinane 4-oxide], the remaining binding at 1 µM in test [1] came to 81%; in test [2] it was 100%; in test [3] it was 0.9%; in test [4] (JAK1(JH1domain-catalytic)), 100%; in test [4] (JAK1(JH2domain-pseudokinase)) it was 34%; in test [5], 84%.
`CNc1nc(Nc2ccc(S(=O)(=O)N3CCC(N4CCOCC4)CC3)cc2OC)nc2[nH]cc(Cl)c12` [Compound 12, 5-chloro-N2-(2-methoxy-4-((4-morpholinopiperidin-1-yl)sulfonyl)phenyl)-N4-methyl-7H-pyrrolo[2,3-d]pyrimidine-2,4-diamine]: the remaining binding at 1 µM in test [1] came to 76%; in test [2], 100%; in test [3], 3.8%; in test [4] (JAK1(JH1domain-catalytic)) it was 100%; in test [4] (JAK1(JH2domain-pseudokinase)) it was 73%; in test [5], 89%.
